Source: US20020146823A1, “Method for promoting hematopoietic and mesenchymal cell proliferation and differentiation” (The University of Southern California, priority 1997, published 2002)
Entries after “also recorded” stand apart in the source; their conditions may differ. No end group written: not given here.

Experiments:
[1] = system: Rat Peritoneal Macrophages; assay: Phagocytic capability of rat peritoneal macrophages (opsonized yeast ingestion); assay type: cell-based, Sprague Dawley rats
Method: Resident peritoneal macrophages have very little phagocytic activity. Exposure of macrophages to inflammatory or activating agents will increase this macrophage function. Resident peritoneal macrophages were harvested from C57B1/6 mice or Sprague Dawley rats and resuspended at a concentration of 1×10^6 cells/ml in phosphate buffered saline (PBS). Five separate 0.5 ml cell aliquots were placed on a glass coverslip in a 35 mm petri dish. Prior to incubation, either 0.5 ml of PBS, AII, or AII analogues or fragments at between 1-1000 ug/ml final concentration was added to the individual cover slips. The dishes containing the cover slips were then incubated at 37° C. for 4 hours, after which the cover slips were washed 3 to 6 times with PBS. Opsonized yeast particles (Sigma Chemical Co.) (yeast opsonized with adult serum from the same species as that under study) were added to the cover slips and incubated for 2 hours, after which the cover slips were again washed with PBS and inverted onto a glass slide. The number of macrophages that ingested yeast and the number of yeast per macrophage ingested was then determined microscopically. At least 100 macrophages per coverslip were counted. The data from this study are summarized in Tables 3 and 4 and FIGS. 1 and 2.

[2] = system: human peripheral blood mononuclear cells (PBMC); assay: Respiratory burst (hydrogen peroxide generation) in human PBMC; assay type: cell-based; details: PBMC; presence and absence of PMA
Method: The respiratory burst of leukocytes (macrophages and polymorphonuclear neutrophils) is one component of the mediator system used to kill bacteria. As with phagocytosis, the level of this respiratory burst activity in resident macrophages is low. […] Studies were conducted to assess the effect of in vitro exposure of murine or rat peritoneal macrophages and human peripheral blood mononuclear cells (PBMC) to various concentrations of AII on the capacity to generate hydrogen peroxide via the respiratory burst system. For the human studies, five different donors were examined.
The murine or rat peritoneal cells were harvested by lavage with 5-15 ml of cold PBS with 0.5% bovine serum albumin. The human PBMC were harvested by venipuncture from normal human volunteers and isolated from peripheral blood by Ficoll Hypaque density centrifugation. After isolation, the cells were resuspended at 1×10^6 cells/ml and placed at 100 μl per well into 96 well plates. The cells were incubated with various concentrations of AII or AII analogues and fragments for 4 hours at 37° C. The cells were then preloaded with a fluorescent probe for hydrogen peroxide, 2,7 dichlorofluorescein acetate, which is nonfluorescent in the absence of hydrogen peroxide. Fifteen minutes later, 10 ng/ml of phorbol myristate acetate (+PMA) or PBS (−PMA) was added to stimulate the production of hydrogen peroxide. One hour after stimulation the level of fluorescence produced was measured on a Cytofluor 2350 multiwell fluorometer.

[3] = Tests of effectiveness of AII fragments (test not specified)
Source text: Particularly preferred embodiments of this class include the following: AII, AIII or AII(2-8), […] [SEQ ID NO:2]; […] AII(1-7), […] {SEQ ID NO:4]; AII(2-7). […] [SEQ ID NO:5]; AII(3-7), […] [SEQ ID NO:6]; AII(5-8), […] [SEQ ID NO:7]; AII(1-6), […] [SEQ ID NO:8]; AII(1-5), […] [SEQ ID NO:9]; AII(1-4), […] [SEQ ID NO:10]; and AII(1-3), […] [SEQ ID NO:11]. Other preferred embodiments include: […] [SEQ ID NO:12] and […] [SEQ ID NO:13]. Still another preferred embodiment encompassed within the scope of the invention is a peptide having the sequence […] [SEQ ID NO:31]. AII(6-8), […] [SEQ ID NO:14] and AII(4-8), […] Particularly preferred is angiotensin III of the formula […] [SEQ ID NO:2]. Other preferred compounds include peptides having the structures […] [SEQ ID NO:17] and […] [SEQ ID NO:18].

Substance	#/Cell ([1]; peptide 100 μg/ml)	% w/Yeast ([1]; peptide 100 μg/ml)	Number of Macrophages with Yeast (Yeast Number) 0 ([1]; peptide 100 μg/ml)	Number of Macrophages with Yeast (Yeast Number) 1-3 ([1]; peptide 100 μg/ml)	Number of Macrophages with Yeast (Yeast Number) 4-6 ([1]; peptide 100 μg/ml)	Number of Macrophages with Yeast (Yeast Number) ≧7 ([1]; peptide 100 μg/ml)	#/Cell ([1]; peptide 1000 μg/ml)	% w/Yeast ([1]; peptide 1000 μg/ml)	Number of Macrophages with Yeast (Yeast Number) 0 ([1]; peptide 1000 μg/ml)	Number of Macrophages with Yeast (Yeast Number) 1-3 ([1]; peptide 1000 μg/ml)	Number of Macrophages with Yeast (Yeast Number) 4-6 ([1]; peptide 1000 μg/ml)	Number of Macrophages with Yeast (Yeast Number) ≧7 ([1]; peptide 1000 μg/ml)	respiratory burst capacity after pre-exposure to analogues and fragments of AII [2]	effectiveness [3]
Asp-Arg-Val-Tyr-Ile-His-Pro (DRVYIHP; printed: Asp-Arg-Val-Tyr-Ile-His-Pro) [AII(1-7)]	0.53	20.6%	100	21	5	0	0.85	30.8%	90	30	10	0	an increase in the respiratory burst capacity was observed	–
Asp-Arg-Val-Tyr-Ile-His-Pro-Ile [GSD 28]	–	–	–	–	–	0	0.02	1.0%	100	1	0	0	an increase in the respiratory burst capacity was observed	–
DRPYIHPF [GSD 24B]	–	–	–	–	–	0	–	–	100	–	–	0	an increase in the respiratory burst capacity was observed	–
His-Pro-Phe [AII(6-8)]	–	–	–	–	–	–	–	–	–	–	–	–	–	not to be effective
RVYAHPF [GSD 22A]	–	–	–	–	–	0	–	–	100	–	–	0	an increase in the respiratory burst capacity was observed	–
Tyr-Ile-His-Pro-Phe (YIHPF; printed: Tyr-Ile-His-Pro-Phe) [AII(4-8)]	–	–	–	–	–	–	–	–	–	–	–	–	–	not to be effective; also recorded: ineffective in repeated tests
